The nature of assay [1]: Rat Hot Plate Assay. Type of assay: in vivo. The following applies: for ED50: po, 1 h, read-out: Hot Plate Assay - Rat ED50; for Hot Plate Assay - Rat ED50, inactive: at 360 mg/kg. An excerpt:
The rat hot plate assay incorporated 2 modifications of the mouse hot plate assay originally described by Eddy et al., J. Pharmacol. Exp. Ther. 98, 121-137 (1950). The first modification was enlargement of the diameter of the cylindrical (water filled) copper plate to 25.0 cm to accommodate rats instead of mice. The second modification was the use of a temperature controller to regulate a 250 watt infrared heat lamp which was activated via a thermistor probe attached to the undersurface of the top of the copper plate. The surface temperature was thus maintained at 45±1.0° C. (N=28 measurements of the plate temperature under experimental conditions). The time in which a rat placed on the hotplate responded by lifting, shaking or licking either of its hind or forelimbs was recorded in tenths of a second. Only animals responding in pretest within 6-13 seconds were used in the studies. Drugs were suspended in 0.5% sodium carboxymethylcellulose and administered orally, by gavage, in a volume of 1.00 ml/100 g.b. wt. 60 min prior to testing. […] The reaction time of 18.3 seconds represented the sum of the mean pretest times of 40 untreated rats plus the time of 3 standard deviations of the mean. ED50 's and their standard errors were estimated from a graph of the dose-response curves using the method of Miller and Tainter (Proc. Soc. Exp. Biol. Med. 57, 261-262 (1944). Following this procedure the analgesic activity of the compound (I) was compared to that of standard analgesic drugs (Table III).
*Duration of Action in Rat Hot Plate assay represents the time in hrs to
reduce 1.5 times the hot plate ED50 to 40% inhibition.
Background: Hot-plate and tail-flick tests time the reaction to a heat stimulus.

The nature of assay [2]: Acetic Acid Writhing Test (AAWT) in the rat. The format is in vivo. Conditions: po, read-out: ED50 (Acetic Acid Writhing Assay in the Rat). An excerpt: Using the procedure described by Koster et al. in Fed. Proc. 18, 412 (1959) and Vinegar et al. in Handbook of Experimental Pharmcology, 50-2, ch.
A general note: In writhing tests, fewer writhes than in controls are read as antinociception.

Assay [3] in a line: Yeast-Induced Hyperthermia Assay, antipyretic activity. The following applies: rat; for ED50: po; for antipyretic activity (in words): yeast-induced hyperthermia assay. The format is in vivo. An excerpt: The Yeast-Induced Hyperthermia Assay was used according to the procedure described by Khalili-Varasteh et al. in Arch. Int. Pharmacodyn.
Assay [4] in a line: Modified Trypsin Hyperalgesic Assay (THA) in the rat. The format is in vivo. On the procedure:
The analgesic agents were administered 30 minutes after the administration of trypsin. In addition, a modification of Vinegar's published assay was carried out, comprising the administration of the analgesic agent preceding subplantar injection of trypsin (0.10 ml of 10% solution of trypsin in pyrogen-free water) by 15 minutes. In both THA's, pain scores were determined 60 minutes after trypsin injection. The result of the modification was to increase the sensitivity of the THA to the mild analgesic action of the agents.
There were usually 6 rats at each dose level and at least 3 dose levels were used.

Assay [5] can be described thus: analgesic activity, assay not given (including inhibition by naloxone). The format is in vivo.
Assay [6] can be described thus: Carrageenin Pleurisy Assay (CPA), acute anti-inflammatory activity. Type of assay: in vivo, rat. On the procedure:
Following the procedure described by Vinegar et al. in Proc. Soc. Exp. Biol. Med. 151, 556, (1976), the acute anti-inflammatory activity of the compound (I) was compared with that of known anti-inflammatory drugs in the rat. The average 3 hour exudate volume for each drug-treated group was determined and the % inhibition relative to solvent-fed control animals calculated, the ED50 being the dose required to reduce the 3 hour exudate volume by 50%.

Assay [7] deals with morphine receptor. The assay can be described thus: binding to the morphine receptor.
Setting [8] is: rat, p.o., 60 min prior to testing, plate 45±1.0° C.
The mark [9] stands for this setting: po, 1 h, rat, p.o., 6.0 kg Force, agent given 15 minutes before trypsin, pain scores 60 minutes after trypsin, read-out: ED50, 6.0 kg Force (Modified Trypsin Hyperalgesic Assay).

A word on the ED50: it is the midpoint of the dose-response relation.

Regarding `COc1ccc2c3c1O[C@H]1[C@@H](O)C=C[C@H]4[C@@H](C2)N(C)CC[C@@]341` [Codeine], the median effective dose (ED50) in assay [1] (setting [8]) was 57 ± 35.3 mg/kg. For the same compound, in assay [1] (rat, p.o., dose 90 mg/kg), the “Hot plate Duration of Action (time to reduce 1.5 times the hot plate ED50 to 40% inhibition)” value was determined as 3.3 h.

As to `CC(=O)Oc1ccccc1C(=O)O` [Aspirin], the 50% effective dose (ED50) in assay [2] (Rattus norvegicus) was 21 ± 3.4 mg/kg; in assay [3] it was 50 ± 8.1 mg/kg; in assay [4] (Rattus norvegicus, po, read-out: ED50, 6.0 kg Force (Modified Trypsin Hyperalgesic Assay), inactive) it was more than 180 mg/kg. The “Hot Plate Assay - Rat ED50, inactive” value in assay [1] (rat, p.o.) is given as “Inactive”. Also, the “antipyretic activity (in words)” value in assay [3] was “combats fever in the rat”.

Consider `CC(=O)Nc1ccc(O)cc1` [Acetaminophen], for which the “Hot Plate Assay - Rat ED50, inactive” value in assay [1] (rat, p.o.) is listed as “Inactive”. Further, in assay [3], the ED50 is 72 ± 8.6 mg/kg and the “antipyretic activity (in words)” value is recorded as “combats fever in the rat”. For the same compound, the ED50 in assay [4] (setting [9]) amounted to 95 ± 17.2 mg/kg. The ED50 at 200 mg/kg in assay [4] (po, rat, p.o., 7.5 kg Force, @ 200 mg/kg, read-out: ED50, 7.5 kg Force (Modified Trypsin Hyperalgesic Assay), inactive) is more than 200 mg/kg.

Consider `O=C1CCCN1c1ccc2c(c1)OCO2` [Compound I, 1-(1,3-benzodioxol-5-yl)-2-pyrrolidinone], for which the ED50 in assay [2] (rat, p.o.) was found to be 36 ± 7.1 mg/kg; in assay [1] (setting [8]), 86 ± 16.5 mg/kg; in assay [6] (po, 3 h, rat, p.o., relative to solvent-fed control animals, read-out: ED50, dose required to reduce the 3 hour exudate volume by 50% (CPA)) it was 48 ± 10.5 mg/kg; in assay [3], 67 ± 4.2 mg/kg; in assay [4] (setting [9]), 24 ± 5.3 mg/kg; in assay [4] (po, 1 h, rat, p.o., 7.5 kg Force, agent given 15 minutes before trypsin, pain scores 60 minutes after trypsin, read-out: ED50, 7.5 kg Force (Modified Trypsin Hyperalgesic Assay)), 23 ± 3.5 mg/kg. Further, the “Hot plate Duration of Action (time to reduce 1.5 times the hot plate ED50 to 40% inhibition)” value in assay [1] (rat, p.o., dose 120 mg/kg) was determined as 5.0 h. Besides, the “duration of analgesic action (in words)” value in assay [1] (versus codeine or morphine, assay not given) was “significantly greater for compound (I) than for codeine or morphine”. Further, in assay [5] (in vivo), the “analgesic activity (in words)” value was “mild to moderately strong analgesic activity”. For the same compound, the “inhibition of analgesic activity by naloxone (in words)” value in assay [5] (naloxone) is given as “analgesic activity is not inhibited by naloxone”. Further, the “acute anti-inflammatory activity (in words)” value in assay [6] (rat, carrageenan pleurisy assay) is given as “potent, long-lasting acute anti-inflammatory activity”. The “acute anti-inflammatory action compared with acetaminophen (in words)” value in assay [6] (versus acetaminophen at comparable dose levels) was “more potent and to have a longer-lasting anti-inflammatory effect at comparable dose levels”. Also, the “binding to the morphine receptor (in words)” value in assay [7] is given as “does not bind to the morphine receptor”. In addition, the “antipyretic activity (in words)” value in assay [3] was “antipyretic activity”. Moreover, the “analgesic activity compared with known analgesics in the trypsin assay (in words)” value in assay [4] (trypsin assay, versus acetaminophen, aspirin, zomepirac, codeine, morphine) is “superior to acetaminophen and the prostaglandin synthetase inhibitors such as aspirin and zomepirac as shown in the trypsin assay but less active than the opiates such as codeine or morphine”.

For `COc1ccc2c3c1O[C@H]1[C@@H](O)C=C[C@H]4[C@@H](C2)N(C)CC[C@@]341` [Codeine Phosphate], the ED50 in assay [2] (Rattus norvegicus) was 30 ± 2.7 mg/kg; in assay [4] (Rattus norvegicus, po, 1 h, read-out: ED50, 6.0 kg Force (Modified Trypsin Hyperalgesic Assay)), 10 ± 1.7 mg/kg; in assay [4] (Rattus norvegicus, po, 1 h, read-out: ED50, 7.5 kg Force (Modified Trypsin Hyperalgesic Assay)), 8.8 ± 2.77 mg/kg.

Regarding `CN1CC[C@]23c4c5ccc(O)c4O[C@H]2[C@@H](O)C=C[C@H]3[C@H]1C5` [Morphine], the median effective dose (ED50) in assay [1] (Rattus norvegicus) was 17 ± 3.6 mg/kg. For the same compound, in assay [1] (rat, p.o., dose 30 mg/kg), the “Hot plate Duration of Action (time to reduce 1.5 times the hot plate ED50 to 40% inhibition)” value is 2.5 h.

The values are drawn from US4431662A, “1-(1,3-Benzodioxol-5-yl)-2-pyrrolidinone and its medicinal use” (priority 1981, dated 1984).
